Test results published in patent US20130065959A1, “SANITIZING MEAT WITH PERACID AND 2-HYDROXY ORGANIC ACID COMPOSITIONS” (Fresh Express Incorporated, priority 2009, published 2013).

Tests used:
Assay type in all cases: cell-based
[1] = test system: E. coli K12; assay: Attached cells challenge test on produce leaves (Example 1)
[2] = test system: Listeria innocua (ATCC 33090); assay: Attached cells on vegetable and fruit surface (Example 7); details: Whole Strawberry, 45 sec
Experimental: (§1) Inoculum preparation: ATCC freeze dried culture was rehydrated in 10 mL of sterilized tryptic soy broth and mixed homogeneously. 0.1 mL of the stock solution was transferred to 10 mL of TSB and incubated at 37C for 24 h. Enrichment was streaked to confirm purity. 2 mL of the enriched stock was transferred to 200 mL of TSB and incubated at 37C for 24 h and 36 h, respectively for E. coli K-12 (ATCC 25253) (EC) and Listeria innocua (ATCC 33090) (LI) resulting in ˜10^8 cfu/mL stationary phase culture stock. The stock was cooled for at 4C for 1 h. Microbial population of the stationary phase stock culture was enumerated by means of serial dilution with 9-mL Butterfield phosphate buffer tubes and spread plating on Tryptic Soy Agar (TSA) pre-poured agar plates for EC or Modified Oxford Agar (MOX) pre-poured agar plates for LI.
(§2) Vegetable and fruit surface inoculation: The 200 mL˜10^8 cfu/mL stock culture solution was homogeneously mixed by shaking and swirling the Erlenmeyer flask. The 200 mL culture was separated into 4 centrifuge tubes (50 mL each) and centrifuged at 10,000 rpm and 4C for 15 min. The stock culture pellet was re-suspended with 5 mL of 5% Horse Serum. All the re-suspended cultures from the four centrifuge tubes were combined to form 20 mL˜10^9 cfu/mL inoculating stock culture. The outer peel or surface of the test vegetable and fruit was cut into 5cm×2.5 cm pieces or diced into […] cubes in the case of tomatoes for inoculation. 50 uL inoculum in the form of 2 uL droplets were spiked onto the strawberry, and diced tomato surface while 100 uL in the form of 2 uL droplets were inoculated onto the potato peel. The spiked surfaces or peels were placed in a biological safety cabinet for 60 min at 18 to 24C for drying.
(§3) Treatment of inoculated vegetable and fruit surfaces: Each sample of inoculated vegetable or fruit surface was placed into a 2.5L stomacher bag containing 500 mL of the tested solution and shook vigorously for 45 s. The tested solutions included city water, lactic acid solution (LA), peracetic acid solution (PA), and FreshRinse solution (FR). The treated vegetable or fruit surface was immediately transferred into a sterile stomacher bag containing 100 mL of Butterfield phosphate buffer with 1 sodium thiosulfate pellet at the end of the 45 s treatment. Each solution treatment was performed in duplications. The reduction for each solution treatment was compared to that of the city water treatment.

[3] = test system: E. coli K-12 (ATCC 25253); assay: as above; details: 45 sec
Experimental: as §1, §2, §3

[4] = test system: E. coli K-12 (ATCC 25253); assay: Attached cells on chicken wing skin (Example 8); details: Middle chicken wing skin, 10.5 min
Experimental: as §1, with “TSB” for “tryptic soy broth”, “h” for “h and 36 h, respectively”, “(EC)” for “(EC) and Listeria innocua (ATCC 33090) (LI)”, “cooled” for “cooled for”, “EC” for “EC or Modified Oxford Agar (MOX) pre-poured agar plates for LI.”
Chicken wing surface inoculation: The 200 mL ˜10^8cfu/mL stock culture solution was homogeneously mixed by shaking and swirling the Erlenmeyer flask. The 200 mL culture was separated into 4 centrifuge tubes (50 mL each) and centrifuged at 10,000 rpm and 4C for 15 min. The stock culture pellet was re-suspended with 5 mL of 5% Horse Serum. All the re-suspended cultures from the four centrifuge tubes were combined to form 20 mL˜10^9 cfu/mL inoculating stock culture. The chicken middle wing was pat dried by paper towel. A permanent marker was used to mark a 2.5 cm×2.5 cm square at the middle of the flat surface of the chicken wing for inoculation. 50 uL inoculum in the form of 2 uL droplets were spiked onto the marked square on the chicken wing skin. The inoculated chicken wing was placed into a sterile polypropylene basket. The spiked chicken wing inside the polypropylene basket was dried inside a biological safety cabinet for 120 min at 18 to 24C.
Treatment of inoculated chicken wing: Each sample of inoculated chicken wing was placed into a 2.5L stomacher bag containing 500 mL of the tested solution for 10 minutes with intermittent 30 s-shakings at 0, 4, and 9 min. The tested solutions included city water, lactic acid solution (LA), peracetic acid solution (PA), and FreshRinse solution (FR). The treated chicken wing was immediately removed from the treatment solution after 10 min and placed into a sterilized Petri-dish with the marked side facing up. A pre-wet sterilized swab dipped in 10 mL Butterfield phosphate buffer with sodium thiosulfate was used to swab the marked area. After swabbing the cotton wool swab was immediately placed back into the 10 mL Butterfield phosphate buffer with sodium thiosulfate and mixed. One mL was immediately transferred from the aforementioned tube to a 9 mL Butterfield phosphate buffer. The total treatment time including the exposure time, the swabbing time, and the transfer time was 10.5 min. Each solution treatment was performed in duplications. The reduction for each solution treatment was compared to that of the city water treatment

[5] = test system: Listeria innocua; assay: Attached cells challenge test on produce leaves (Example 1)

CC(O)C(=O)O (stereo not shown) [Lactic Acid, lactic acid]
Log reduction, attached cells ([1]; Romaine, PAA 0 ppm, LA 0.6%): 0.24 | Log reduction, attached cells ([1]; Romaine, PAA 0 ppm, LA 0.9%): 0.37 | Log reduction, attached cells ([1]; Romaine, PAA 0 ppm, LA 1.2%): 1.28 | Log reduction, attached cells ([1]; Spinach, PAA 0 ppm, LA 0.6%): 0.09 | Log reduction, attached cells ([1]; Spinach, PAA 0 ppm, LA 0.9%): 0.42 | Log reduction, attached cells ([1]; Spinach, PAA 0 ppm, LA 1.2%): 0.81 | Log reductions ([2]; PA 0 ppm, LA 1,500 ppm): 0.0 | Log reductions ([2]; PA 0 ppm, LA 3,000 ppm): 0.5 | Log reductions ([3]; Diced Tomato, PA 0 ppm, LA 1,500 ppm): 0.1 | Log reductions ([3]; Diced Tomato, PA 0 ppm, LA 3,000 ppm): 0.0 | Log reductions ([3]; Potato peel, PA 0 ppm, LA 1,500 ppm): 0.1 | Log reductions ([3]; Potato peel, PA 0 ppm, LA 3,000 ppm): 0.0 | Log reductions ([4]; PA 0 ppm, LA 5,000 ppm): 0.3 | Log reductions ([4]; PA 0 ppm, LA 10,000 ppm): 0.7 | Log reduction, attached cells ([5]; Romaine, PAA 0 ppm, LA 0.6%): 1.1 | Log reduction, attached cells ([5]; Romaine, PAA 0 ppm, LA 0.9%): 1.4 | Log reduction, attached cells ([5]; Romaine, PAA 0 ppm, LA 1.2%): 1.5 | Log reduction, attached cells ([5]; Spinach, PAA 0 ppm, LA 0.6%): 0.1 | Log reduction, attached cells ([5]; Spinach, PAA 0 ppm, LA 0.9%): 0.2 | Log reduction, attached cells ([5]; Spinach, PAA 0 ppm, LA 1.2%): 0.2

CC(=O)OO [Peroxyacetic acid, peroxyacetic acid]
Log reduction, attached cells ([1]; Romaine, PAA 60 ppm, LA 0.0%): 0.26 | Log reduction, attached cells ([1]; Romaine, PAA 70 ppm, LA 0.0%): 0.53 | Log reduction, attached cells ([1]; Romaine, PAA 80 ppm, LA 0.0%): 1.18 | Log reduction, attached cells ([1]; Spinach, PAA 60 ppm, LA 0.0%): 0.69 | Log reduction, attached cells ([1]; Spinach, PAA 70 ppm, LA 0.0%): 1.33 | Log reduction, attached cells ([1]; Spinach, PAA 80 ppm, LA 0.0%): 2.46 | Log reductions ([2]; PA 50 ppm, LA 0 ppm): 1.1 | Log reductions ([3]; Diced Tomato, PA 60 ppm, LA 0 ppm): 0.6 | Log reductions ([3]; Diced Tomato, PA 80 ppm, LA 0 ppm): 0.7 | Log reductions ([3]; Potato peel, PA 60 ppm, LA 0 ppm): 1.0 | Log reductions ([3]; Potato peel, PA 80 ppm, LA 0 ppm): 1.2 | Log reductions ([4]; PA 40 ppm, LA 0 ppm): 0.6 | Log reductions ([4]; PA 60 ppm, LA 0 ppm): 0.5 | Log reductions ([4]; PA 80 ppm, LA 0 ppm): 1.0 | Log reduction, attached cells ([5]; Romaine, PAA 60 ppm, LA 0.0%): 0.6 | Log reduction, attached cells ([5]; Romaine, PAA 70 ppm, LA 0.0%): 1.0 | Log reduction, attached cells ([5]; Romaine, PAA 80 ppm, LA 0.0%): 1.7 | Log reduction, attached cells ([5]; Spinach, PAA 60 ppm, LA 0.0%): 0.3 | Log reduction, attached cells ([5]; Spinach, PAA 70 ppm, LA 0.0%): 0.5 | Log reduction, attached cells ([5]; Spinach, PAA 80 ppm, LA 0.0%): 1.2
